Test results reported in patent publication US20230310408A1, “TLR7 INHIBITOR IN COMBINATION WITH PREDNISOLONE OR HYDROXYCHLOROQUINE FOR TREATING CUTANEOUS LUPUS ERYTHEMATOSUS” (priority 2020, published 2023).
“Also recorded” adds a separate entry of the source.

What was measured:
Type in all cases: in vivo, mouse
[1] = tested on: Female MRL/lpr mice; assay: Combination studies in MRL/lpr model of lupus, established disease; settings: 5 weeks; for total number of cutaneous lesions: doses of Table 2 (FIG. 6); for neck erythema of cutaneous lesions: doses of Table 2 (FIG. 7); for ear erythema of cutaneous lesions: doses of Table 2 (FIG. 8); for total erythema of cutaneous lesions: doses of Table 2 (FIG. 9); for kidney injury marker proteinuria: doses of Table 2 (FIG. 10); for kidney injury marker urinary NGAL: doses of Table 2 (FIG. 11)
Method: Female MRL/lpr mice of 15 weeks of age were treated for 5 weeks. […] Total skin lesions score includes cumulative score of Neck/Back, Face, Head and Ear lesions

[2] = tested on: Female MRL/lpr mice; assay: Combination studies in MRL/lpr model of lupus, advanced disease; settings: 5 weeks; for total number of cutaneous lesions: doses of Table 2 (FIG. 12); for neck erythema of cutaneous lesions: doses of Table 2 (FIG. 13, FIG. 14); for ear erythema of cutaneous lesions: doses of Table 2 (FIG. 15); for total erythema of cutaneous lesions: doses of Table 2 (FIG. 16)
Method: Female MRL/lpr mice of 16 weeks of age were treated for 5 weeks. […] Total skin lesions score includes cumulative score of Neck/Back, Face, Head and Ear lesions.

[3] = tested on: Female MRL/lpr mice; assay: Cutaneous model of lupus: female MRL/lpr mice treated orally once daily for 8 weeks;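 for all read-outs here: mice aged 12–14 weeks, randomized by anti-dsDNA antibody titer and urinary NGAL, treated groups compared against vehicle controls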; settings: for % Survival / anti-dsDNA, anti-Ro and anti-smRNP auto-antibody titers / kidney injury markers (proteinuria and urinary NGAL) / cutaneous lesions (number of lesions on face, neck, head, ear; total lesions) / erythema of cutaneous lesions (neck, ear, total): oral once daily; for % Survival / cutaneous lesions (number of lesions on face, neck, head, ear; total lesions) / erythema of cutaneous lesions (neck, ear, total): 8 weeks; for anti-dsDNA, anti-Ro and anti-smRNP auto-antibody titers: 8 weeks (FIG. 3); for anti-dsDNA, anti-Ro and anti-smRNP auto-antibody titers / kidney injury markers (proteinuria and urinary NGAL): at 0.25 and 0.75 mg/kg Compound (I); for kidney injury markers (proteinuria and urinary NGAL): 8 weeks (FIG. 4); for cutaneous lesions (number of lesions on face, neck, head, ear; total lesions): versus vehicle (FIG. 1); for erythema of cutaneous lesions (neck, ear, total): versus vehicle (FIG. 2)

| Molecule | total number of cutaneous lesions [1] | neck erythema of cutaneous lesions [1] | ear erythema of cutaneous lesions [1] | total erythema of cutaneous lesions [1] | kidney injury marker proteinuria [1] | kidney injury marker urinary NGAL [1] | total number of cutaneous lesions [2] | neck erythema of cutaneous lesions [2] | ear erythema of cutaneous lesions [2] | total erythema of cutaneous lesions [2] | anti-dsDNA, anti-Ro and anti-smRNP auto-antibody titers [3] | kidney injury markers (proteinuria and urinary NGAL) [3] | cutaneous lesions (number of lesions on face, neck, head, ear; total lesions) [3] | erythema of cutaneous lesions (neck, ear, total) [3] | other results |
| --- | --- | --- | --- | --- | --- | --- | --- | --- | --- | --- | --- | --- | --- | --- | --- |
| hydroxychloroquine [HCQ] | suppression of cutaneous lesions but less than treatment with Compound (I) | suppression | suppression of erythema of cutaneous lesions on the ear of mice but less than treatment with Compound (I) | suppression | suppression | suppression | suppression of cutaneous lesions but less than treatment with Compound (I) | suppression | suppression of erythema of cutaneous lesions on the ear of mice but less than treatment with Compound (I) | suppression |  |  |  |  | % Survival ([1]; 100 mg/kg): 93.3%; % Survival ([2]; 100 mg/kg): 100% |
| CC12C=CC(=O)C=C1CCC1C2C(O)CC2(C)C1CCC2(O)C(=O)CO (stereo not shown) [Prednisolone, 11,17-dihydroxy-17-(2-hydroxyacetyl)-10,13-dimethyl-6,7,8,9,10,11,12,13,14,15,16,17-dodecahydrocyclopenta[a] phenanthren-3-one] | suppression of cutaneous lesions but less than treatment with Compound (I) | suppression | suppression of erythema of cutaneous lesions on the ear of mice but less than treatment with Compound (I) | suppression | suppression | suppression | suppression of cutaneous lesions but less than treatment with Compound (I) | suppression | suppression of erythema of cutaneous lesions on the ear of mice but less than treatment with Compound (I) | suppression | inhibition | reduction | inhibition | reduction | % Survival ([1]; 1 mg/kg): 93.3%; % Survival ([1]; 10 mg/kg): 93.3%; % Survival ([2]; 1 mg/kg): 86.6%; % Survival ([2]; 10 mg/kg): 93.3%; % Survival ([3]; 10 mg/kg): 100% |
| Cc1c(-c2[nH]c3ccc(C4CCN(CC(N)=O)CC4)cc3c2C(C)C)cn2ncnc2c1C [Compound (I), 2-(4-(2-(7,8-dimethyl-[1,2,4]triazolo[1,5-a]pyridin-6-yl)-3-isopropyl-1H-indol-5-yl)piperidin-1-yl)acetamide] | suppressed | suppressed | suppressed | suppressed | suppression | suppression | suppressed | suppressed; also recorded: increased suppression of erythema of cutaneous lesions on the neck of mice compared the treatment with hydroxychloroquine | suppressed | suppressed | Inhibition; also recorded: significant suppression | reduction; also recorded: Inhibition; also recorded: suppression | significant and robust dose-dependent suppression; also recorded: Dose-dependent inhibition | suppressed; also recorded: significant reduction; also recorded: Dose-dependent inhibition | % Survival ([1]; 0.25 mg/kg): 100%; % Survival ([2]; 0.25 mg/kg): 93.3%; % Survival ([3]; 0.005 mg/kg): 87%; % Survival ([3]; 0.02 mg/kg): 93%; % Survival ([3]; 0.25 mg/kg): 100%; % Survival ([3]; 0.75 mg/kg): 100%; Type I IFN response gene expression ([3]; at 0.25 and 0.75 mg/kg, blood, qPCR): inhibited |
